Test results from ChEMBL document CHEMBL3885861, “Open TG-GATES”.

Species: Rattus norvegicus
Assay: Open TG-GATES - Regimen: Daily Repeat
Assay type: toxicity, organism-based, Sprague-Dawley
Parameters: regimen Daily Repeat, gender Male, age 6 weeks
Conditions: in vivo, po, 10 mg/kg, route gavage, dose level Low; for APTT / Bas / Eos / Fbg / Hb / Ht / Lym / MCH / MCHC / MCV / Mono / Neu / PT / Plat / RBC / Ret / WBC: tissue Blood; for KIDNEY_L / KIDNEY_R / KIDNEY_TOTAL: tissue Kidney; for LIVER: tissue Liver; for A/G / ALP / ALT / AST / BUN / CRE / Ca / Cl / DBIL / GLC / IP / K / LDH / Na / PL / RALB / TBIL / TC / TG / TP / gamma-GTP: tissue Plasma

CC1=C(/C=C/C(C)=C/C=C/C(C)=C/CO)C(C)(C)CCC1 [RETINOL]
TERMINAL_BW (72 h, time 3 day): 230.9 g | APTT (72 h, time 3 day): 22.3 s | Bas (72 h, time 3 day): 0% | Eos (72 h, time 3 day): 0.8% | Fbg (72 h, time 3 day): 311.2 mg/dL | Hb (72 h, time 3 day): 13.4 g/dL | Ht (72 h, time 3 day): 38.9% | Lym (72 h, time 3 day): 80.8% | MCH (72 h, time 3 day): 21 pg | MCHC (72 h, time 3 day): 34.4% | MCV (72 h, time 3 day): 61.2 fL | Mono (72 h, time 3 day): 2.6% | Neu (72 h, time 3 day): 15.4% | PT (72 h, time 3 day): 16.8 s | Plat (72 h, time 3 day): 123.7 x10_4/uL | RBC (72 h, time 3 day): 636 x10_4/ul | Ret (72 h, time 3 day): 6.2% | WBC (72 h, time 3 day): 97.2 x10_2/uL | KIDNEY_L (72 h, time 3 day): 1 g | KIDNEY_R (72 h, time 3 day): 1 g | KIDNEY_TOTAL (72 h, time 3 day): 2 g | LIVER (72 h, time 3 day): 10.7 g | A/G (72 h, time 3 day): 1.3 | ALP (72 h, time 3 day): 2143.6 IU/L | ALT (72 h, time 3 day): 51.6 IU/L | AST (72 h, time 3 day): 82 IU/L | BUN (72 h, time 3 day): 17 mg/dL | CRE (72 h, time 3 day): 0.1 mg/dL | Ca (72 h, time 3 day): 11 mg/dL | Cl (72 h, time 3 day): 107.8 meq/L | DBIL (72 h, time 3 day): 0 mg/dL | GLC (72 h, time 3 day): 191.4 mg/dL | IP (72 h, time 3 day): 6.5 mg/dL | K (72 h, time 3 day): 4.3 meq/L | LDH (72 h, time 3 day): 262.6 IU/L | Na (72 h, time 3 day): 142.2 meq/L | PL (72 h, time 3 day): 153.6 mg/dL | RALB (72 h, time 3 day): 3.2 g/dL | TBIL (72 h, time 3 day): 0.016 mg/dL | TC (72 h, time 3 day): 78.2 mg/dL | TG (72 h, time 3 day): 112.6 mg/dL | TP (72 h, time 3 day): 5.6 g/dL | gamma-GTP (72 h, time 3 day): 1 IU/L | TERMINAL_BW ([…], time 7 day): 257.9 g | TERMINAL_BW ([…], time 14 day): 293.8 g | TERMINAL_BW ([…], time 28 day): 358.5 g | APTT ([…], time 7 day): 23.3 s | Bas ([…], time 7 day): 0% | Eos ([…], time 7 day): 0.8% | Fbg ([…], time 7 day): 298.4 mg/dL | Hb ([…], time 7 day): 13.6 g/dL | Ht ([…], time 7 day): 39.2% | Lym ([…], time 7 day): 79.4% | MCH ([…], time 7 day): 21.2 pg | MCHC ([…], time 7 day): 34.8% | MCV ([…], time 7 day): 60.9 fL | Mono ([…], time 7 day): 2.4% | Neu ([…], time 7 day): 16.8% | PT ([…], time 7 day): 15.9 s | Plat ([…], time 7 day): 111.8 x10_4/uL | RBC ([…], time 7 day): 644 x10_4/ul | Ret ([…], time 7 day): 5.1% | WBC ([…], time 7 day): 94.2 x10_2/uL | APTT ([…], time 14 day): 23.8 s | Bas ([…], time 14 day): 0% | Eos ([…], time 14 day): 0.8% | Fbg ([…], time 14 day): 295.4 mg/dL | Hb ([…], time 14 day): 14.4 g/dL | Ht ([…], time 14 day): 40.6% | Lym ([…], time 14 day): 83.6% | MCH ([…], time 14 day): 20.6 pg | MCHC ([…], time 14 day): 35.4% | MCV ([…], time 14 day): 58.2 fL | Mono ([…], time 14 day): 1.8% | Neu ([…], time 14 day): 13.2% | PT ([…], time 14 day): 16.2 s | Plat ([…], time 14 day): 107.1 x10_4/uL | RBC ([…], time 14 day): 698 x10_4/ul | Ret ([…], time 14 day): 3.9% | WBC ([…], time 14 day): 114.6 x10_2/uL | APTT ([…], time 28 day): 26.8 s | Bas ([…], time 28 day): 0% | Eos ([…], time 28 day): 1% | Fbg ([…], time 28 day): 330 mg/dL | Hb ([…], time 28 day): 14.9 g/dL | Ht ([…], time 28 day): 41.2% | Lym ([…], time 28 day): 82.8% | MCH ([…], time 28 day): 19.8 pg | MCHC ([…], time 28 day): 36.2% | MCV ([…], time 28 day): 54.6 fL | Mono ([…], time 28 day): 1.6% | Neu ([…], time 28 day): 14.6% | PT ([…], time 28 day): 15.8 s | Plat ([…], time 28 day): 102.3 x10_4/uL | RBC ([…], time 28 day): 756 x10_4/ul | Ret ([…], time 28 day): 2.4% | WBC ([…], time 28 day): 86 x10_2/uL | KIDNEY_L ([…], time 7 day): 1.1 g | KIDNEY_R ([…], time 7 day): 1.1 g | KIDNEY_TOTAL ([…], time 7 day): 2.2 g | KIDNEY_L ([…], time 14 day): 1.1 g | KIDNEY_R ([…], time 14 day): 1.2 g | KIDNEY_TOTAL ([…], time 14 day): 2.3 g | KIDNEY_L ([…], time 28 day): 1.3 g | KIDNEY_R ([…], time 28 day): 1.3 g | KIDNEY_TOTAL ([…], time 28 day): 2.6 g | LIVER ([…], time 7 day): 12.5 g | LIVER ([…], time 14 day): 12.9 g | LIVER ([…], time 28 day): 14.9 g | A/G ([…], time 7 day): 1.3 | ALP ([…], time 7 day): 1621.4 IU/L | ALT ([…], time 7 day): 41.6 IU/L | AST ([…], time 7 day): 68.2 IU/L | BUN ([…], time 7 day): 17.2 mg/dL | CRE ([…], time 7 day): 0.2 mg/dL | Ca ([…], time 7 day): 10.7 mg/dL | Cl ([…], time 7 day): 107.2 meq/L | DBIL ([…], time 7 day): 0 mg/dL | GLC ([…], time 7 day): 193.2 mg/dL | IP ([…], time 7 day): 6.2 mg/dL | K ([…], time 7 day): 4.1 meq/L | LDH ([…], time 7 day): 216 IU/L | Na ([…], time 7 day): 142.4 meq/L | PL ([…], time 7 day): 157.4 mg/dL | RALB ([…], time 7 day): 3.2 g/dL | TBIL ([…], time 7 day): 0.006 mg/dL | TC ([…], time 7 day): 76.4 mg/dL | TG ([…], time 7 day): 160.4 mg/dL | TP ([…], time 7 day): 5.7 g/dL | gamma-GTP ([…], time 7 day): 1.4 IU/L | A/G ([…], time 14 day): 1.2 | ALP ([…], time 14 day): 1426.6 IU/L | ALT ([…], time 14 day): 42.8 IU/L | AST ([…], time 14 day): 70.6 IU/L | BUN ([…], time 14 day): 17.6 mg/dL | CRE ([…], time 14 day): 0.2 mg/dL | Ca ([…], time 14 day): 10.6 mg/dL | Cl ([…], time 14 day): 108.4 meq/L | DBIL ([…], time 14 day): 0 mg/dL | GLC ([…], time 14 day): 195 mg/dL | IP ([…], time 14 day): 5.7 mg/dL | K ([…], time 14 day): 4 meq/L | LDH ([…], time 14 day): 181.2 IU/L | Na ([…], time 14 day): 143.2 meq/L | PL ([…], time 14 day): 150 mg/dL | RALB ([…], time 14 day): 3.1 g/dL | TBIL ([…], time 14 day): 0.004 mg/dL | TC ([…], time 14 day): 70.2 mg/dL | TG ([…], time 14 day): 156.8 mg/dL | TP ([…], time 14 day): 5.7 g/dL | gamma-GTP ([…], time 14 day): 0.8 IU/L | A/G ([…], time 28 day): 1.2 | ALP ([…], time 28 day): 1127 IU/L | ALT ([…], time 28 day): 46.2 IU/L | AST ([…], time 28 day): 69.4 IU/L | BUN ([…], time 28 day): 15.2 mg/dL | CRE ([…], time 28 day): 0.2 mg/dL | Ca ([…], time 28 day): 10.4 mg/dL | Cl ([…], time 28 day): 108.4 meq/L | DBIL ([…], time 28 day): 0 mg/dL | GLC ([…], time 28 day): 182.8 mg/dL | IP ([…], time 28 day): 5.8 mg/dL | K ([…], time 28 day): 4.1 meq/L | LDH ([…], time 28 day): 167.2 IU/L | Na ([…], time 28 day): 142 meq/L | PL ([…], time 28 day): 140.2 mg/dL | RALB ([…], time 28 day): 3.2 g/dL | TBIL ([…], time 28 day): 0.016 mg/dL | TC ([…], time 28 day): 67.8 mg/dL | TG ([…], time 28 day): 168.2 mg/dL | TP ([…], time 28 day): 6 g/dL | gamma-GTP ([…], time 28 day): 1.4 IU/L
